Measured values from ChEMBL document CHEMBL5338766, “X-ray Crystal Structure-Guided Discovery of Novel Indole Analogues as Colchicine-Binding Site Tubulin Inhibitors with Immune-Potentiating and Antitumor Effects against Melanoma” (J Med Chem, 2023).

What was measured:
B16-F10 [1] = assay: Antitumor immunity in C57 mouse implanted with mouse B16-F10 cells assessed as increase in CD3+ CD4+ helper T cells in tumor at 2.5 mg/kg, ip administered every day for 14 days in the presence of NP19 by flow cytometric analysis (reference value: 0.332%); assay type: functional; conditions: time 14 day
B16-F10 [2] = assay: Antitumor activity against mouse B16-F10 cells implanted in C57 mouse assessed as tumor growth inhibition at 5 mg/kg, ip administered every day for 14 days relative to control; assay type: functional; conditions: B16-F10, 336 h, time 14 day, read-out: TGI
[3] = Antiproliferative activity against parental human A549S cells assessed as inhibition of cell proliferation incubated for 48 hrs by MTT assay; assay type: functional, cell-based
[4] = Resistance index, ratio of IC50 for antiproliferative activity against paclitaxel resistant human A2780/Taxol cells to IC50 for antiproliferative activity against parental human A2780S cells; assay type: functional
A2780/Taxol = assay: Antiproliferative activity against paclitaxel resistant human A2780/Taxol cells assessed as inhibition of cell proliferation incubated for 48 hrs by MTT assay; assay type: functional, cell-based
A2780S = assay: Antiproliferative activity against parental human A2780S cells assessed as inhibition of cell proliferation incubated for 48 hrs by MTT assay; assay type: functional, cell-based
MCF7 = assay: Antiproliferative activity against human MCF7 cells assessed as inhibition of cell proliferation incubated for 48 hrs by MTT assay; assay type: functional, cell-based; conditions: MCF7, 48 h
HeLa = assay: Antiproliferative activity against human HeLa cells assessed as inhibition of cell proliferation incubated for 48 hrs by MTT assay; assay type: functional, cell-based
Tubulin (Sus scrofa) = Tubulin (Sus scrofa) (UniProt P02554+P02550); assay: (§1) Inhibition of pig brain tubulin polymerization in the presence of GTP by spectrophotometric analysis; assay type: tissue-based
Tubulin (Sus scrofa), sequence (P02550 whole entry, looked up): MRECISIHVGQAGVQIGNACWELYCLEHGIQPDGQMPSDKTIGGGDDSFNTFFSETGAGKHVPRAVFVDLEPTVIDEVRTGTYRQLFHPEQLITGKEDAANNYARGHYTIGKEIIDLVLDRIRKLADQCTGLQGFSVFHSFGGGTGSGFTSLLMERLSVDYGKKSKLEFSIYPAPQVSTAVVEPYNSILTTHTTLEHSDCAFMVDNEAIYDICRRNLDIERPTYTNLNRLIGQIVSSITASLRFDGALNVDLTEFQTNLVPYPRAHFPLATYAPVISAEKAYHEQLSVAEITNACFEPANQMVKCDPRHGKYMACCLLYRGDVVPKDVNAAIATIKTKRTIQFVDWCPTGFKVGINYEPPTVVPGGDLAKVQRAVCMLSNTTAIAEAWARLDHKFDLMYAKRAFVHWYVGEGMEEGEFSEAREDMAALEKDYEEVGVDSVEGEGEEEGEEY
Tubulin (Sus scrofa), sequence (P02554 whole entry, looked up): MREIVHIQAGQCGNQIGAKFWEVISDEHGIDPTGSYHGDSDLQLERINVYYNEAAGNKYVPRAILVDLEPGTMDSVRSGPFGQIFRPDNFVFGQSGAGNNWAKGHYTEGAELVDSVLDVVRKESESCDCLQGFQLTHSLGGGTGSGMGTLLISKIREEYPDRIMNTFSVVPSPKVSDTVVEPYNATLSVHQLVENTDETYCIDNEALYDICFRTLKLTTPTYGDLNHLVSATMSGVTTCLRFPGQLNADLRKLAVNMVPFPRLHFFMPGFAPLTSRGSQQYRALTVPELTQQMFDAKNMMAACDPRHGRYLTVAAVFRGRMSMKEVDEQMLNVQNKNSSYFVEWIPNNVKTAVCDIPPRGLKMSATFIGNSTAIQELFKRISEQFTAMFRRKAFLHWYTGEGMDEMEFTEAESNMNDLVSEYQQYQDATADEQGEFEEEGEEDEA

Tubulin = Tubulin (Sus scrofa, UniProt P02554+P02550); assay: as §1; assay type: tissue-based
Tubulin (Homo sapiens) = Tubulin (Homo sapiens) (UniProt P68371+Q9H4B7+P0DPH7+P68366+Q13509+Q71U36+P04350+Q3ZCM7+P07437+P68363+Q9BQE3+Q6PEY2+Q13885+Q9BVA1+Q9BUF5); assay: Disruption of microtubule network in human HepG2 cells cytosol incubated for 12 hrs by DAPI staining based fluorescence microscopic analysis; assay type: subcellular; conditions: dose 0.5-5 nM
HepG2 [5] = assay: Cell cycle arrest in human HepG2 cells assessed as accumulation of cells at G1 phase at 0.5 nM incubated for 48 hrs by RNaseA/PI staining based flow cytometric analysis (reference value: 56.11%); assay type: functional
HepG2 [6] = assay: Cell cycle arrest in human HepG2 cells assessed as accumulation of cells at G2 phase at 0.5 nM incubated for 48 hrs by RNaseA/PI staining based flow cytometric analysis (reference value: 17.37%); assay type: functional
HepG2 [7] = assay: Cell cycle arrest in human HepG2 cells assessed as accumulation of cells at S phase at 1 nM incubated for 48 hrs by RNaseA/PI staining based flow cytometric analysis (reference value: 23.81%); assay type: functional
HepG2 [8] = assay: Cell cycle arrest in human HepG2 cells assessed as accumulation of cells at G2 phase at 1 nM incubated for 48 hrs by RNaseA/PI staining based flow cytometric analysis (reference value: 17.37%); assay type: functional
HepG2 [9] = assay: Cell cycle arrest in human HepG2 cells assessed as accumulation of cells at G1 phase at 5 nM incubated for 48 hrs by RNaseA/PI staining based flow cytometric analysis (reference value: 56.11%); assay type: functional
HepG2 [10] = assay: Cell cycle arrest in human HepG2 cells assessed as accumulation of cells at G2 phase at 5 nM incubated for 48 hrs by RNaseA/PI staining based flow cytometric analysis (reference value: 17.37%); assay type: functional
HepG2 [11] = assay: Induction of apoptosis in human HepG2 cells assessed as late apoptotic cells at 0.5 nM incubated for 48 hrs by Annexin V-FITC/PI staining based flow cytometric analysis (reference value: 4.96 %); assay type: functional
HepG2 [12] = assay: Induction of apoptosis in human HepG2 cells assessed as necrotic cells at 0.5 nM incubated for 48 hrs by Annexin V-FITC/PI staining based flow cytometric analysis (reference value: 0.443%); assay type: functional
HepG2 [13] = assay: Induction of apoptosis in human HepG2 cells assessed as early apoptotic cells at 1 nM incubated for 48 hrs by Annexin V-FITC/PI staining based flow cytometric analysis (reference value: 7.01 %); assay type: functional
[14] = AUC(0 to t) in Sprague-Dawley rat at 2 mg/kg, iv measured upto 12 hrs by UPLC-MS/ESI analysis; assay type: ADME, organism-based; design: time < 12 hrs, dose 2 mg/kg, route iv; conditions: in vivo
[15] = AUC(0 to infinity) in Sprague-Dawley rat at 2 mg/kg, iv measured upto 12 hrs by UPLC-MS/ESI analysis; assay type: ADME, organism-based; design: dose 2 mg/kg, time < 12 hrs, route iv; conditions: in vivo
[16] = Half-life in Sprague-Dawley rat at 2 mg/kg, iv measured upto 12 hrs by UPLC-MS/ESI analysis; assay type: ADME, organism-based; conditions: in vivo
[17] = Clearance in Sprague-Dawley rat at 2 mg/kg, iv measured upto 12 hrs by UPLC-MS/ESI analysis; assay type: ADME, organism-based; conditions: in vivo
[18] = AUC (0 to t) in Sprague-Dawley rat at 20 mg/kg, po measured upto 12 hrs by UPLC-MS/ESI analysis; assay type: ADME, organism-based; design: time < 12 hrs, dose 20 mg/kg, route po; conditions: in vivo
[19] = AUC (0 to infinity) in Sprague-Dawley rat at 20 mg/kg, po measured upto 12 hrs by UPLC-MS/ESI analysis; assay type: ADME, organism-based; design: dose 20 mg/kg, time < 12 hrs, route po; conditions: in vivo
[20] = Tmax in Sprague-Dawley rat at 20 mg/kg, po measured upto 12 hrs by UPLC-MS/ESI analysis; assay type: ADME, organism-based; conditions: in vivo
[21] = Clearance in Sprague-Dawley rat at 20 mg/kg, po measured upto 12 hrs by UPLC-MS/ESI analysis; assay type: ADME, organism-based; conditions: in vivo
[22] = Acute toxicity in C57 mouse assessed as survival rate at 40.96 mg/kg, po administered daily for 14 days relative to control; assay type: organism-based; conditions: in vivo, time 14 day, read-out: Activity
[23] = Acute toxicity in C57 mouse assessed as survival rate at 80 mg/kg, po administered daily for 14 days relative to control; assay type: organism-based; conditions: in vivo, time 14 day, read-out: Activity
[24] = Acute toxicity in C57 mouse assessed as survival rate at 100 mg/kg, po administered daily for 14 days relative to control; assay type: organism-based; conditions: in vivo, time 14 day, read-out: Activity
[25] = Acute toxicity in C57 mouse assessed as lethal dose administered orally daily for 14 days; conditions: in vivo, route po, time 14 day
B16-F10 [26] = assay: Antitumor activity against mouse B16-F10 cells implanted in C57 mouse assessed as tumor growth inhibition at 2.5 mg/kg, ip administered every day for 14 days in the presence of NP19 relative to control; assay type: functional; conditions: B16-F10, 336 h, time 14 day, read-out: TGI
[27] = Toxicity in C57 mouse implanted with mouse B16-F10 cells assessed as body weight loss at 2.5 mg/kg, ip administered every day for 14 days in the presence of NP19; assay type: organism-based; conditions: in vivo, 336 h, time 14 day
[28] = Toxicity in C57 mouse implanted with mouse B16-F10 cells assessed as pathological changes in heart at 5 mg/kg, ip administered every day for 14 days by H&E staining based microscopic analysis; assay type: organism-based; conditions: in vivo, 336 h, time 14 day
[29] = Toxicity in C57 mouse implanted with mouse B16-F10 cells assessed as pathological changes in heart at 2.5 mg/kg, ip administered every day for 14 days in the presence of NP19 by H&E staining based microscopic analysis; assay type: organism-based; conditions: in vivo, 336 h, time 14 day

SMILES: COc1cc(-c2nccc3[nH]c(-c4cccc5c4ccn5C)nc23)cc(OC)c1OC
- Activity (B16-F10 [1]): 2.35%
- inhibition in vivo at 5 mg/kg (B16-F10 [2]): 63%
- IC50 [3]: 8.5 nM
- Ratio IC50 [4]: 3.2
- IC50 (A2780/Taxol): 5.1 nM
- IC50 (A2780S): 1.6 nM
- IC50 (MCF7): 6 nM
- IC50 (HeLa): 9 nM
- inhibition (Tubulin (Sus scrofa)): Dose-Dependent Effect
- IC50 (Tubulin): 1010 nM
- Activity (Tubulin (Homo sapiens)): Dose-Dependent Effect
- Activity (HepG2 [5]): 49.61%
- Activity (HepG2 [6]): 20.73%
- Activity (HepG2 [7]): 20.35%
- Activity (HepG2 [8]): 36.46%
- Activity (HepG2 [9]): 20.19%
- Activity (HepG2 [10]): 55.89%
- Activity (HepG2 [11]): 6.41%
- Activity (HepG2 [12]): 0.428%
- Activity (HepG2 [13]): 31.3%
- AUC(0-t) at 12 h [14]: 3060 ng·h/mL
- AUC(0-inf) [15]: 3080 ng·h/mL
- half-life [16]: 1.08 h
- clearance [17]: 11.2 mL/min/kg
- AUC(0-t) at 12 h [18]: 3330 ng·h/mL
- AUC(0-inf) [19]: 3380 ng·h/mL
- Tmax [20]: 0.92 h
- CL/F [21]: 107 mL/min/kg
- survival at 336 h [22]: 100%
- survival at 336 h [23]: 20%
- survival at 336 h [24]: 0%
- LD50 at 336 h [25]: 66.9 mg/kg
- inhibition in vivo at 2.5 mg/kg (B16-F10 [26]): 77.8%
- Activity [27]: Non-Toxic
- Activity [28]: Non-Toxic
- Activity [29]: Non-Toxic
